The values below are quoted from earlier work in patent US20090214648A1 (priority 2008, published 2009).

A value given as a limit tells only on which side of the number the result lay.

For data set [1] the following is noted: in vivo.

As to `CC(C)Cc1ccc(C(C)C(=O)O)cc1` (stereo not shown) [Ibuprofen, 2-[4-(2-methylpropyl)phenyl]propanoic acid], in the data set with enzyme cyclooxygenase, the Inhibition of cyclooxygenase result is on record as “potent inhibitor”. In addition, in data set [1], the “Dose excreted in the urine” value is “more than 90%”, the Dose excreted unchanged entry was “Less than 10%” and the “Time until excretion is essentially complete” value was at most 24 h.
